Results on two compounds are retold here after publication PMC9794608 (Frontiers in Veterinary Science, 2022).

The nature of series [1]: Plasma pharmacokinetics after single and repeat oral dose, LC-MS/MS, non-compartmental analysis. As to conditions: for Tmax: TMAX (trametinib in plasma), median (range). The class given is in vivo, Beagle dogs. On the procedure: (§1) Laboratory Beagle dogs (Charles River Labs, Mattawan, MI) served as surrogates in testing compounds proposed for application in canine clinical cancer care. The animals were at least six months old and weighed 6.4–8.8 kg at the initiation of study. They had routine veterinary care and had not been used in any previous studies. The study was conducted in AAALAC-accredited animal facilities [Charles River Laboratories, Inc., Mattawan, MI; NIH Office of Laboratory Animal Welfare Assurance approval (https://olaw.nih.gov/assured/app/index.html)], under review, monitoring, and approval of the facility's Institutional Animal Care and Use Committee according to U.S. Public Health Service national guidelines and regulations for the care and use of laboratory animals. The study was not designed to incorporate Good Laboratory Practices (GLP) regulatory criteria. Animals on study were monitored daily or more frequently and body weights were recorded, while periodic specimens were obtained for laboratory analyses. Clinical pathology analyses were included for hematology, serum chemistry, coagulation, urinalysis, and chemical bioanalysis was accomplished for pharmacokinetics (PK) (Table 1, repeat dose study) (Charles River Laboratories, Mattawan, MI).
Six male and six female beagle dogs were enrolled in a parallel, three-arm, fixed, repeat oral-dose study. […] In Group 2, two male (23001, 23002) and two female (23501, 23502) dogs were given sapanisertib alone (0.1 mg/kg) every other day (p.o., QOD). […] All dogs were dosed on study day 1 to obtain single dose PK samples, and then dosed serially days 4–20. Dogs were fasted overnight prior to dosing and fed ad libitum 2 h (hrs) following dose administration.
Plasma samples for PK were collected at pre-dose (-7 days), then beginning day 1 following the initial dose of each study group at 1, 2, 4, 8, 24, 48, and 72 h. On day 6, plasma samples were collected pre-dose, then 1, 2, 4, 8, and 24 h post-dose. On days 10 and 15, a 2-h post-dose sample was collected. On day 20, plasma samples were drawn at pre-dose and 1, 2, 4, 8, 24, 48, and 72 h post-dose. Treatment schedule and clinical pathology specimen sampling intervals are outlined in Table 1.
(§2) Each 50 μL aliquot of known concentration standards, quality control sample, or study sample was mixed with 200 μL of working internal standard solution (10 ng/mL in acetonitrile). The samples were vortexed and centrifuged. A 150 μL aliquot of the resulting supernatant was transferred to a clean 96-well plate, evaporated, and reconstituted with 100 μL of water/acetonitrile (40/60, v/v). An aliquot was injected onto an LC-MS/MS XBridge BEH C18 liquid chromatography system (Waters Associates, Framingham, MA) having 50 x 2.1 mm (2.5 μm particle size) column with an isocratic flow consisting of water/formic acid (100/0.1, v/v) and acetonitrile/formic acid (100/0.1, v/v) at a flow rate of 0.3000 mL/min for analysis. The analyte and internal standard were detected using an API 6500+ triple quadrupole LC-MS/MS system (AB Sciex, LLC, Framingham, MA) equipped with an ESI (TurboIonSpray®) ionization source operated in the positive ion mode.
A non-compartmental approach to PK analysis was employed using Phoenix WinNonlin v8.3 (Certara Corp, Cary, NC) that was validated per FDA 21CFR Part 11 regulations. The maximum plasma concentration (CMAX) and the time of maximum plasma concentration (TMAX) were recorded as observed values. […] AUCINF (the AUC from time zero to infinity) was calculated by extrapolation by dividing CLAST (the last measurable drug concentration) by the rate constant of the terminal phase, λZ. This constant was determined from the slope of the terminal phase of the concentration-time curve using uniformly-weighted least-squares as the estimation procedure and acceptance criteria of (i) adjusted r^2 > 0.8, (ii) includes > 3 time points in the terminal phase occurring after the TMAX. […]

The conditions of series [2]: cited from earlier work.
The subject of series [3] is cytochrome P450 CYP3A4. To be noted: cited from earlier work.
In series [4] the test system is laboratory beagle dogs. Description: Repeat dose tolerability: clinical observations, hematology, serum chemistry, coagulation, urinalysis. Type of series: in vivo. On the procedure:
as §1
Six male and six female beagle dogs were enrolled in a parallel, three-arm, fixed, repeat oral-dose study. […] All dogs were dosed on study day 1 to obtain single dose PK samples, and then dosed serially days 4–20. Dogs were fasted overnight prior to dosing and fed ad libitum 2 h (hrs) following dose administration.
On days 10 and 15, a 2-h post-dose sample was collected. […] Treatment schedule and clinical pathology specimen sampling intervals are outlined in Table 1. […]
Sampling for hematology, serum chemistry, coagulation and urinalysis was conducted to facilitate monitoring treatment effects over various time points, and values obtained were compared to pre-treatment measurements for each subject (Table 1).

Details of series [5]: method as in PMID 32943547. As to conditions: combination with sapanisertib, p <0.001; cited from earlier work.
Series [6] is described as follows: Pilot single oral dose plasma trametinib concentrations (initial formulation). The class given is in vivo. To be noted: fasted dogs. How it is done: as §2
These analytical findings, even under animal fasting conditions, were independently verified at the NCI Clinical Pharmacology Program. […] Consequently, trametinib was reformulated for this study by […] with equimolar dimethyl sulfoxide (DMSO) (Wedgewood Pharmacy, Swedesboro, NJ), consistent with the human formulation ([…]®, Novartis), and used for all subsequent evaluations. […]

[7] abbreviates: ref MEKINIST Prescribing Information.

SMILES strings stand for the structures.

As usually defined, the Cmax is the highest concentration seen after dosing. Broadly, the half-life is the time needed for the level to fall by half in the phase considered. Read a low half-life as rapid decline. By Tmax is commonly meant the time from dosing to the highest level. Take `CC(=O)Nc1cccc(-n2c(=O)n(C3CC3)c(=O)c3c(Nc4ccc(I)cc4F)n(C)c(=O)c(C)c32)c1` [Trametinib, trametinib dimethyl sulfoxide]: in series [1] (Mann-Whitney, p > 0.05), the “CMAX or AUC, male versus female dogs” value is given as “absence of significant differences”. The same compound returned a Cmax in series [1] (both, beagle, dog, plasma, po, […], CMAX (trametinib in plasma), First dose (Day 1), trametinib […] p.o., alone or with sapanisertib 0.1 mg/kg (see label), arithmetic mean (%CV), n = 4) of 0.64 ng/mL. This compound gave a half-life in series [1] (both, beagle, dog, plasma, po, […], T1/2 (trametinib in plasma), Steady-state (Day 20), trametinib […] p.o. q.d., mean (%CV), one subject of the trametinib-alone group excluded) of 58.8 h. The Tmax in series [1] (both, beagle, dog, plasma, po, […], First dose (Day 1), trametinib […] p.o., n = 4) was found to be 1.5 h. The Tmax in series [1] (both, beagle, dog, plasma, po, […], Steady-state (Day 20), trametinib […] p.o. q.d., n = 4) came to 2 h. In addition, the “Trametinib accumulation upon repeat daily dosing in humans” value in series [2] was “up to six-fold”. In addition, in series [2] (setting [7]), the “Clearance of trametinib in humans” value is 1.2 mL/min/kg and the “Distribution volume of trametinib in humans” value is 3.1 L/kg. The “Induction of cytochrome P450 CYP3A4” value in series [3] is “known inducer”. For the same compound, the “Dogs with minimal to marked increases in urine protein concentration” value in series [4] (Day 25, greater than pre-study values, 4 dogs per group) is recorded as “one male dog”. The “Urine protein concentration, highest value (up to)” value in series [4] (Day 25, semi-quantitatively by urine dipstick) is given as ≥ 1,000 mg/dL. In series [4] (Days 7, 20, and/or 25), the “Globulin concentration, times pre-study (up to)” value is listed as “up to 1.45 x”. Besides, the “Serum phosphorus concentrations, times pre-study (as low as)” value in series [4] (Days 7 and 20, both sexes in all groups) was at least 0.74 x. For the same compound, the “Individual animal fibrinogen concentration, times pretreatment (up to)” value in series [4] (various time points, most pronounced in Group 3) was “up to 2.61 x”. Besides, in series [5], the “Trametinib AUC in mice during combination treatment” value is on record as “significantly increased”.
Consider `CC(=O)Nc1cccc(-n2c(=O)n(C3CC3)c(=O)c3c(Nc4ccc(I)cc4F)n(C)c(=O)c(C)c32)c1` [trametinib, as initially formulated, trametinib], for which the “Plasma trametinib concentration after single oral dose” value in series [6] (0.06 or 0.03 mg/kg, inconsistent, frequently below assay detection limit, for each dose one of two dogs below detection) was under 0.1 ng/mL. The “Time to detection of trametinib in plasma post dose” value in series [6] (single oral dose 0.06 or 0.03 mg/kg) is at least 24 h.
